Numbered stars: 1 amine (or outer) side, 2 acyl side, 3 side chain; on linkers, the order of the positions; unused ones are H or OH. Square brackets hold non-standard residues; d marks the D form. Peptide text beside a SMILES is read from it. ξ: configuration not given here. X1 = CC(=O)OC(C)(C)C[C@@H](C(=O)[*:2])N(C)[*:1]; ξNMeBmt = C/C=C/C[C@@H](C)[C@@H](O)C(NC)C(=O)O; dNMeL = CN[C@H](CC(C)C)C(=O)O; dNMeV = CN[C@@H](C(=O)O)C(C)C; dAbu = CC[C@@H](N)C(=O)O; Sar = CNCC(=O)O
Key:
IL-2 = assay: T Cell stimulation (IL-2) in Jurkat cells with anti-CD3 and anti-CD28 co-stimulation; assay type: cell-based; settings: Homo sapiens, supernatant after 6 hours
Experimental: Compounds of formula (I) were tested for their T Cell stimulation (IL-2) in Jurkat cells with anti-CD3 and anti-CD28 co-stimulation. […] All compounds to be tested were dissolved in dimethyl sulfoxide. Cytotoxicity was evaluated with parallel Alamar Blue plates. Jurkat cells were seeded at 2×10^5 cells per well in 190 μL growth media in a 96-well plate. Cells were cultured in RPMI 1640 medium, 10% fetal bovine serum, and L-Glutamine with incubation at 37° C. with 5% carbon dioxide. After 1 hour of incubation the cells were stimulated with immobilized anti-CD3 (0.4 μg/well), anti-CD28 soluble (2 μg/mL). After 6 hours the sample supernatants were harvested and stored at −80° C. 50 μL samples of supernatant were tested for IL-2 using a Luminex® 1-plex assay.

[1] = tested on: Mitochondria prepared from rat livers; assay: Mitochondrial permeability transition (Ca2+-induced mitochondrial swelling); assay type: biochemical; settings: rat liver mitochondria, swelling induced by 150 micro molar Ca2+, compounds added 5 minutes before; read-out: MPT EC50 (inhibition of mitochondrial swelling)
Experimental: Mitochondrial permeability transition (MPT) was determined by measuring swelling of the mitochondria induced by Ca^2+. The procedure was adapted from the method described by Blattner et al., 2001, Analytical Biochem., 295: 220. Mitochondria were prepared from rat livers, which had been perfused with phosphate-buffered saline (PBS) to remove blood, using standard methods that utilized gentle homogenization in sucrose based buffer and then differential centrifugation to first remove cellular debris and then to pellet the mitochondria. Swelling was induced by 150 micro molar Ca^2+ (added from a concentrated solution of Calcium chloride) and was monitored by measuring the scattering at 535-540 nm. Representative compounds were added 5 minutes before swelling was induced. EC50 were determined by comparing swelling with and without the compounds of formula (I).

C/C=C/C[C@@H](C)[C@@H](O)C1C(=O)N[C@H](CC)C(=O)N(C)CC(=O)N(C)[C@@H](CC(C)(C)OC(C)=O)C(=O)N[C@H](C(C)C)C(=O)N(C)[C@H](CC(C)C)C(=O)N[C@H](C)C(=O)N[C@@H](C)C(=O)N(C)[C@H](CC(C)C)C(=O)N(C)[C@H](CC(C)C)C(=O)N(C)[C@H](C(C)C)C(=O)N1C (some centres unmarked) [Compound E, [4′-acetoxy-N-methylleucine]^4cyclosporine A] (cyclo(A[dNMeL][dNMeL][dNMeV][ξNMeBmt][dAbu][Sar][X1][dV][dNMeL][dA]))
EC50 (IL-2): < 0.01 µM

[4′-hydroxy-N-methylleucine]^4cyclosporine A S-benzyl-4′-thiocarbonate [Compound X]
EC50 [1]: > 30 µM

— US8536114B2, “Macrocycles” (Scynexis, Inc., priority 2008, dated 2013)
